From PMC10970486 (Bioconjugate chemistry, 2024)

Biological target: MelBSt (melibiose permease) (Salmonella enterica, UniProt P30878)
Test: displacement of D2G, Trp to dansyl FRET
Type: binding
Conditions: excess melibiose added after D2G; extract in DDM, TMG-A13 or TMG-P10,8

Chain of MelBSt (melibiose permease) (P30878 whole entry): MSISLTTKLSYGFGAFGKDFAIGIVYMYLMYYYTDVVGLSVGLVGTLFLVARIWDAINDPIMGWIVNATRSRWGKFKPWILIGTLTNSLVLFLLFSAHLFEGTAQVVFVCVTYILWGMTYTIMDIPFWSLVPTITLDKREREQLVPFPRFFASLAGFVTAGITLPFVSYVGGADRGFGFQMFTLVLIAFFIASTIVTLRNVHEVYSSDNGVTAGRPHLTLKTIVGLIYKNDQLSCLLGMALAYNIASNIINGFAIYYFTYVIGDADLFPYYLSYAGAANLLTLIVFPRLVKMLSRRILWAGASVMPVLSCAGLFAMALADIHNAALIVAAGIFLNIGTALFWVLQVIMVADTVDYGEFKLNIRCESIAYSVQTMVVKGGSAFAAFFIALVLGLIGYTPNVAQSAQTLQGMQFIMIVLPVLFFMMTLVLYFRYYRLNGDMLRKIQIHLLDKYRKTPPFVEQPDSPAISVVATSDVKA

OC[C@H]1O[C@H](OC[C@H]2OC(O)[C@H](O)[C@@H](O)[C@@H]2O)[C@H](O)[C@@H](O)[C@H]1O (stereo partly shown) [melibiose]
displacement of D2G, Trp to dansyl FRET: excess melibiose replaces the dansyl ligand with the non-fluorescent substrate in the active site
